Laboratory results as given in patent US20100285959A1, “HERBICIDAL MIXTURES” (priority 2006, published 2010).

Experiments:
giant foxtail (SETFA) = test: Test 14 field trial, preemergence, growth as percent of control; type: in vivo, Setaria faberi
Source text: (§1) Corn seeds (hybrid ‘Pioneer 31G96 RR’) were planted in mid spring season, 3.8 cm deep in a clay loam soil having 2% organic matter and a pH of 6.6. Plots were 6.1 m long by 3.0 m wide with rows spaced 76 cm apart. Seeds were spaced 15 cm apart within the rows. The field was managed using conventional tillage practices. […] Yellow nutsedge was only evaluated 19 and 28 days after application, and ivyleaf morningglory could only be evaluated 28 days after application. […] Results are the means of the three replicates. This growth inhibition data was converted to results in the form of “plant growth as a percent of control plant growth” using the calculation “100 minus growth inhibition”. […] For “growth as a percent of control” data, Colby's Equation calculates the expected additive effect of herbicidal mixtures having two active ingredients as follows:
(§2) Ga+b=GaGb/100 • wherein Ga+b is the growth as a percent of control of plants treated with the mixture expected from additive contribution of the individual components, • Ga is the observed growth as a percent of control of plants treated with the first active ingredient at the same use rate as in the mixture, and • Gb is the observed growth as a percent of control of plants treated with the second active ingredient at the same use rate as in the mixture. For mixtures having three active ingredients, Colby's Equation to calculate the expected additive effect of herbicidal mixtures is as follows:
(§3) Ga+b+c=GaGbGc/10,000 • wherein Ga and Gb are as defined above and • Ga+b+c is the growth as a percent of control of plants treated with the mixture expected from additive contribution of the individual components, and • Gc is the observed growth as a percent of control of plants treated with the third active ingredient at the same use rate as in the mixture. When these two forms of Colby's Equation are used, if the observed effects on weeds are less than the expected values, the mixture is synergistic.

jimsonweed (DATST) = test: as above; type: in vivo, Datura stramonium
Source text: as §1, §2, §3

common ragweed (AMBEL) = test: as above; type: in vivo, Ambrosia artemisiifolia
Source text: as §1, §2, §3

yellow nutsedge (CYPES) = test: as above; type: in vivo, Cyperus esculentus
Source text: as §1, §2, §3

[1] = tested on: ladysthumb smartweed (POLPE); test: as above; type: in vivo, Polygonum persicaria
Source text: as §1, §2, §3

[2] = tested on: ivyleaf morningglory (IPOHE); test: as above; type: in vivo, Ipomoea hederacea; conditions: 28 DAA
Source text: as §1, §2, §3

giant ragweed (AMBTR) = test: as above; type: in vivo, Ambrosia trifida
Source text: as §1, §2, §3

velvetleaf (ABUTH) = test: as above; type: in vivo, Abutilon theophrasti
Source text: as §1, §2, §3

Russian thistle (SASKR) = test: Test 4 field trial, postemergence; type: in vivo, Salsola kali; design: scale not given here; conditions: clodinafop 56 or fenoxaprop 90 g a.i./ha alone
Description: (§4) A field trial was conducted to evaluate the effects of mixtures of Compound 2 with commercial herbicides on spring wheat (TRZAS, Triticum aestivum L.) and several weed species. Wheat seeds (cv. ‘AC Intrepid’) were planted in late spring season, 3.8 cm deep in a loam soil having 2.7% organic matter and a pH of 7. Plots were 6 m long by 2.5 m wide. The field was managed using no-till practices. The plots were arranged in a randomized complete block design with each treatment being replicated four times. Treatments were applied postemergence 25 days after planting using a backpack sprayer delivering a spray volume of 55 L/ha using a pressure of 276 kPa. […] Compound 2 and clodinafop treatments, alone and in combination, also included a surfactant. Weed species present in the experimental plots in sufficient quantity to be evaluated included wild oat (AVEFA, Avena fatua L.), common lambsquarters (CHEAL, Chenopodium album L.), kochia (KCHSC, Kochia scoparia (L.) Schrad.), wild buckwheat (POLCO, Polygonum convolvulus L.), Russian thistle (SASKR, Salsola kali L. ssp. ruthenica (Iljin) Soo), and field pennycress (THLAR, Thlaspi arvense L.). […] Common lambsquarters was evaluated only at 14 days after application. […] Results are the means of the four replicates.

wild buckwheat (POLCO) = test: Test 4 field trial, postemergence; type: in vivo, Polygonum convolvulus; conditions: clodinafop 56 or fenoxaprop 90 g a.i./ha alone
Description: as §4

wild oat (AVEFA) = test: Test 4 field trial, postemergence; type: in vivo, Avena fatua; design: scale not given here; conditions: clodinafop 56 or fenoxaprop 90 g a.i./ha alone
Description: as §4

spring wheat (TRZAS) = test: Test 4 field trial, postemergence; conditions: clodinafop 56 or fenoxaprop 90 g a.i./ha alone
Description: as §4

field pennycress (THLAR) = test: Test 4 field trial, postemergence; type: in vivo, Thlaspi arvense; design: scale not given here; conditions: clodinafop 56 or fenoxaprop 90 g a.i./ha alone
Description: as §4

[3] = tested on: common lambsquarters (CHEAL); test: Test 4 field trial, postemergence; type: in vivo, Chenopodium album; conditions: clodinafop 56 or fenoxaprop 90 g a.i./ha alone

CCS(=O)(=O)c1cccnc1S(=O)(=O)NC(=O)Nc1nc(OC)cc(OC)n1 [Rimsulfuron]
Obs growth % of control (giant foxtail (SETFA); 19 DAA, 12 g a.i./ha): 32% | Obs growth % of control (giant foxtail (SETFA); 19 DAA, 24 g a.i./ha): 33% | Obs growth % of control (giant foxtail (SETFA); 19 DAA, 36 g a.i./ha): 7% | Obs growth % of control (giant foxtail (SETFA); 28 DAA, 12 g a.i./ha): 33% | Obs growth % of control (giant foxtail (SETFA); 28 DAA, 24 g a.i./ha): 9% | Obs growth % of control (giant foxtail (SETFA); 28 DAA, 36 g a.i./ha): 5% | Obs growth % of control (giant foxtail (SETFA); 56 DAA, 12 g a.i./ha): 70% | Obs growth % of control (giant foxtail (SETFA); 56 DAA, 24 g a.i./ha): 40% | Obs growth % of control (giant foxtail (SETFA); 56 DAA, 36 g a.i./ha): 28% | Obs growth % of control (jimsonweed (DATST); 19 DAA, 12 g a.i./ha): 100% | Obs growth % of control (jimsonweed (DATST); 19 DAA, 24 g a.i./ha): 93% | Obs growth % of control (jimsonweed (DATST); 19 DAA, 36 g a.i./ha): 85% | Obs growth % of control (jimsonweed (DATST); 28 DAA, 12 g a.i./ha): 100% | Obs growth % of control (jimsonweed (DATST); 28 DAA, 24 g a.i./ha): 62% | Obs growth % of control (jimsonweed (DATST); 28 DAA, 36 g a.i./ha): 48% | Obs growth % of control (jimsonweed (DATST); 56 DAA, 12 g a.i./ha): 100% | Obs growth % of control (jimsonweed (DATST); 56 DAA, 24 g a.i./ha): 92% | Obs growth % of control (jimsonweed (DATST); 56 DAA, 36 g a.i./ha): 92% | Obs growth % of control (common ragweed (AMBEL); 19 DAA, 12 g a.i./ha): 88% | Obs growth % of control (common ragweed (AMBEL); 19 DAA, 24 g a.i./ha): 80% | Obs growth % of control (common ragweed (AMBEL); 19 DAA, 36 g a.i./ha): 68% | Obs growth % of control (common ragweed (AMBEL); 28 DAA, 12 g a.i./ha): 100% | Obs growth % of control (common ragweed (AMBEL); 28 DAA, 24 g a.i./ha): 45% | Obs growth % of control (common ragweed (AMBEL); 28 DAA, 36 g a.i./ha): 33% | Obs growth % of control (common ragweed (AMBEL); 56 DAA, 12 g a.i./ha): 85% | Obs growth % of control (common ragweed (AMBEL); 56 DAA, 24 g a.i./ha): 63% | Obs growth % of control (common ragweed (AMBEL); 56 DAA, 36 g a.i./ha): 53% | Obs growth % of control (yellow nutsedge (CYPES); 19 DAA, 12 g a.i./ha): 85% | Obs growth % of control (yellow nutsedge (CYPES); 19 DAA, 24 g a.i./ha): 85% | Obs growth % of control (yellow nutsedge (CYPES); 19 DAA, 36 g a.i./ha): 70% | Obs growth % of control (yellow nutsedge (CYPES); 28 DAA, 12 g a.i./ha): 83% | Obs growth % of control (yellow nutsedge (CYPES); 28 DAA, 24 g a.i./ha): 60% | Obs growth % of control (yellow nutsedge (CYPES); 28 DAA, 36 g a.i./ha): 50% | Obs growth % of control ([1]; 19 DAA, 12 g a.i./ha): 82% | Obs growth % of control ([1]; 19 DAA, 24 g a.i./ha): 58% | Obs growth % of control ([1]; 19 DAA, 36 g a.i./ha): 32% | Obs growth % of control ([1]; 28 DAA, 12 g a.i./ha): 100% | Obs growth % of control ([1]; 28 DAA, 24 g a.i./ha): 33% | Obs growth % of control ([1]; 28 DAA, 36 g a.i./ha): 35% | Obs growth % of control ([1]; 56 DAA, 12 g a.i./ha): 100% | Obs growth % of control ([2]; 12 g a.i./ha): 100% | Obs growth % of control ([2]; 24 g a.i./ha): 3% | Obs growth % of control ([2]; 36 g a.i./ha): 43% | Obs growth % of control (giant ragweed (AMBTR); 19 DAA, 12 g a.i./ha): 88% | Obs growth % of control (giant ragweed (AMBTR); 19 DAA, 24 g a.i./ha): 80% | Obs growth % of control (giant ragweed (AMBTR); 19 DAA, 36 g a.i./ha): 75% | Obs growth % of control (giant ragweed (AMBTR); 28 DAA, 12 g a.i./ha): 100% | Obs growth % of control (giant ragweed (AMBTR); 28 DAA, 24 g a.i./ha): 60% | Obs growth % of control (giant ragweed (AMBTR); 28 DAA, 36 g a.i./ha): 60% | Obs growth % of control (giant ragweed (AMBTR); 56 DAA, 12 g a.i./ha): 90% | Obs growth % of control (giant ragweed (AMBTR); 56 DAA, 24 g a.i./ha): 83% | Obs growth % of control (giant ragweed (AMBTR); 56 DAA, 36 g a.i./ha): 68% | Obs growth % of control (velvetleaf (ABUTH); 19 DAA, 12 g a.i./ha): 78% | Obs growth % of control (velvetleaf (ABUTH); 19 DAA, 24 g a.i./ha): 62% | Obs growth % of control (velvetleaf (ABUTH); 19 DAA, 36 g a.i./ha): 52% | Obs growth % of control (velvetleaf (ABUTH); 28 DAA, 12 g a.i./ha): 53% | Obs growth % of control (velvetleaf (ABUTH); 28 DAA, 24 g a.i./ha): 13% | Obs growth % of control (velvetleaf (ABUTH); 28 DAA, 36 g a.i./ha): 15% | Obs growth % of control (velvetleaf (ABUTH); 56 DAA, 12 g a.i./ha): 93% | Obs growth % of control (velvetleaf (ABUTH); 56 DAA, 24 g a.i./ha): 65% | Obs growth % of control (velvetleaf (ABUTH); 56 DAA, 36 g a.i./ha): 62%

CC(Oc1ccc(Oc2nc3ccc(Cl)cc3o2)cc1)C(=O)O (stereo not drawn) [Fenoxaprop]
SASKR Obs (Russian thistle (SASKR); 14 DAA): 0 | SASKR Obs (Russian thistle (SASKR); 35 DAA): 0 | POLCO Obs (wild buckwheat (POLCO); 14 DAA): 0 | POLCO Obs (wild buckwheat (POLCO); 35 DAA): 0 | AVEFA Obs (wild oat (AVEFA); 14 DAA): 96 | AVEFA Obs (wild oat (AVEFA); 35 DAA): 96 | AVEFA Obs (wild oat (AVEFA); 55 DAA): 98 | TRZAS Obs (spring wheat (TRZAS); 14 DAA): 0 | TRZAS Obs (spring wheat (TRZAS); 35 DAA): 0 | TRZAS Obs (spring wheat (TRZAS); 55 DAA): 0 | THLAR Obs (field pennycress (THLAR); 14 DAA): 0 | THLAR Obs (field pennycress (THLAR); 35 DAA): 0 | CHEAL Obs ([3]; 14 DAA): 0 | CHEAL Obs ([3]; 35 DAA): 0
